Measurements reported in ChEMBL document CHEMBL1909046, “DrugMatrix in vitro pharmacology data”.

Legend:
[1] = target: Beta-1 adrenergic receptor (Homo sapiens, UniProt P08588); assay: DRUGMATRIX: Adrenergic beta1 radioligand binding (ligand: [125I] Cyanopindolol); type: cell membranes, CHO-K1, Membrane; conditions: cho-k1; Not Active = under 50% inhibition at 10 µM
[2] = DRUGMATRIX: Tumor Necrosis Factor (TNF), Non-Selective radioligand binding (ligand: [125I] TNF-alpha); type: cell membranes, Membrane; conditions: u-937; Not Active = under 50% inhibition at 10 µM
[3] = target: T1, Alpha-2A adrenergic receptor (Homo sapiens, UniProt P08913); type: cell membranes, Sf9, Membrane; further: in other assays of this panel Not Active means under 50% inhibition at 10 µM
T1 sequence (P08913 whole entry): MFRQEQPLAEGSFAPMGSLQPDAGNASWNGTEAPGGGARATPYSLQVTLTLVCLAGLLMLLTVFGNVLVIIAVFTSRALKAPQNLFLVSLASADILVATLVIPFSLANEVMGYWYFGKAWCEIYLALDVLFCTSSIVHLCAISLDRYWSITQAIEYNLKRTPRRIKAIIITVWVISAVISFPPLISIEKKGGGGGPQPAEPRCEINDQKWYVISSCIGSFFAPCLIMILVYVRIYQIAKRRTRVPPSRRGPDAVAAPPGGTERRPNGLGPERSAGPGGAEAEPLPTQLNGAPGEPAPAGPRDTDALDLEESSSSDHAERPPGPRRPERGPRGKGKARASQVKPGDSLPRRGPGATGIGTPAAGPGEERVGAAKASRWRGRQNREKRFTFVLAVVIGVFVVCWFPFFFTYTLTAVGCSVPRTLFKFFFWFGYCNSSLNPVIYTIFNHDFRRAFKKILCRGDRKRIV

[4] = target: Beta-3 adrenergic receptor (Homo sapiens, UniProt P13945); assay: DRUGMATRIX: Adrenergic beta3 radioligand binding (ligand: [125I] Cyanopindolol); type: cell membranes, HEK293, Membrane; conditions: Not Active = under 50% inhibition at 10 µM
Sequence of Beta-3 adrenergic receptor (P13945 whole entry): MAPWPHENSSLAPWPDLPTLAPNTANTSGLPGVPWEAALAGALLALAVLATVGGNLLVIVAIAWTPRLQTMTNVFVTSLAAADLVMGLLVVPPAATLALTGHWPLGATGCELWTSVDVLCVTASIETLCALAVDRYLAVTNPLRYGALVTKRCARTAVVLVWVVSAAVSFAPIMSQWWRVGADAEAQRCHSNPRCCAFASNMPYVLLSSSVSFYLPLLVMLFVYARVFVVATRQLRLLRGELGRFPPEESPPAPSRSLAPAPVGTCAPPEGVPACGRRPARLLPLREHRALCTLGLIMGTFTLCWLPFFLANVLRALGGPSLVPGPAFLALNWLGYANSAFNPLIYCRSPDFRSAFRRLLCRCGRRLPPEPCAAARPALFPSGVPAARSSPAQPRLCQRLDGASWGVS

Caspase-1 = target: T2, Caspase-1 (Homo sapiens, UniProt P29466); set-up: species or system Escherichia coli;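 further: Caspase-1 enzyme inhibition assay with a peptide substrate; in other assays of this panel Not Active means under 50% inhibition at 10 µM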
T2 sequence (P29466 whole entry): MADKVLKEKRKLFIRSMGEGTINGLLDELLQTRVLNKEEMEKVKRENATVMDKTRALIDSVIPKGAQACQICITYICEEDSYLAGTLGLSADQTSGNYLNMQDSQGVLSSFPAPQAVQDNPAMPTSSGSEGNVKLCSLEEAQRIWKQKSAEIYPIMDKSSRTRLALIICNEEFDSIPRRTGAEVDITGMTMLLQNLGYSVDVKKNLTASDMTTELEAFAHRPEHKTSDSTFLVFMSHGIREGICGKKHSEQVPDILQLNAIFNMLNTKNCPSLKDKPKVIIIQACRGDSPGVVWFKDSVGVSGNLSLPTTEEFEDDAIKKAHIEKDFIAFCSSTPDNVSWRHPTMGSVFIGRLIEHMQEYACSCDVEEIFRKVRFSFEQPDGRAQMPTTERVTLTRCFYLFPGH

[5] = DRUGMATRIX: Calcium Channel Type L, Dihydropyridine radioligand binding (ligand: [3H] Nitrendipine); type: cell membranes, Rattus norvegicus, Wistar, Cerebral cortex, Membrane; conditions: Not Active = under 50% inhibition at 10 µM

Sequence of Beta-1 adrenergic receptor (P08588 whole entry): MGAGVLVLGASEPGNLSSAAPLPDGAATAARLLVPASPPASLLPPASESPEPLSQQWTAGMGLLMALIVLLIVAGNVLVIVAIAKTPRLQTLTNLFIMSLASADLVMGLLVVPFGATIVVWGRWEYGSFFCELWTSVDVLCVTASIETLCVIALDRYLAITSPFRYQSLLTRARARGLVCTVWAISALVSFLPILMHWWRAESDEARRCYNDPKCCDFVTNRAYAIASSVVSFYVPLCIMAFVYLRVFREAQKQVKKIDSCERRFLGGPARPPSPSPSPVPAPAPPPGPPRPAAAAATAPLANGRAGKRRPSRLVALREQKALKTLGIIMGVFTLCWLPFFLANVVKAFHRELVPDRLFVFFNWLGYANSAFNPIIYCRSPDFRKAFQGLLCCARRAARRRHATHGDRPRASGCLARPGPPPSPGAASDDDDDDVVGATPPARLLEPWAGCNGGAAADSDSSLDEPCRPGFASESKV

Compound	IC50 [1]	IC50 [2]	Ki [2]	IC50 ([3]; sf9)	IC50 ([4]; hek293)	IC50 (Caspase-1)	IC50 [5]	Ki [5]	Ki [1]	Ki ([3]; sf9)	Ki ([4]; hek293)	Ki (Caspase-1)	IC50 ([3]; read-out: IC50)	Ki ([3]; read-out: Ki)	IC50 ([4]; read-out: IC50)	Ki ([4]; read-out: Ki)	IC50 ([5]; read-out: IC50)	Ki ([5]; read-out: Ki)
Oc1ccccc1O [CATECHOL]	Not Active	Not Active	Not Active	Not Active	Not Active	Not Active	Not Active	Not Active	–	–	–	–	–	–	–	–	–	–
O=P1(N(CCCl)CCCl)NCCCO1 (configuration not stated) [CYCLOPHOSPHAMIDE ANHYDROUS]	Not Active	Not Active	Not Active	Not Active	Not Active	Not Active	Not Active	Not Active	–	–	–	–	–	–	–	–	–	–
INSULIN HUMAN	Not Active	Not Active	Not Active	Not Active	Not Active	Not Active	Not Active	Not Active	Not Active	Not Active	Not Active	Not Active	–	–	–	–	–	–
CS(=O)(=O)OCCCCOS(C)(=O)=O [BUSULFAN]	Not Active	Not Active	Not Active	Not Active	Not Active	Not Active	Not Active	Not Active	–	–	–	–	–	–	–	–	–	–
CC(C)(CO)C(O)C(=O)NCCCO (configuration not stated) [PANTHENOL]	Not Active	Not Active	Not Active	Not Active	Not Active	Not Active	Not Active	Not Active	–	–	–	–	–	–	–	–	–	–
O=C(O)c1cc(=O)c2c(OCC(O)COc3cccc4oc(C(=O)O)cc(=O)c34)cccc2o1 [CROMOLYN]	Not Active	Not Active	Not Active	Not Active	Not Active	Not Active	Not Active	Not Active	–	–	–	–	–	–	–	–	–	–
O=C(/C=C/c1ccc(O)c(O)c1)OCCc1ccccc1 [CAFFEIC ACID PHENETHYL ESTER]	Not Active	Not Active	Not Active	Not Active	Not Active	Not Active	Not Active	Not Active	–	–	–	–	–	–	–	–	–	–
Nc1nc(Cl)nc2c1ncn2[C@H]1C[C@H](O)[C@@H](CO)O1 [CLADRIBINE]	Not Active	Not Active	Not Active	Not Active	Not Active	Not Active	Not Active	Not Active	–	–	–	–	–	–	–	–	–	–
CC[C@H](C)C(=O)O[C@H]1C[C@@H](C)C=C2C=C[C@H](C)[C@H](CC[C@@H]3C[C@@H](O)CC(=O)O3)[C@H]21 [LOVASTATIN]	Not Active	Not Active	Not Active	Not Active	Not Active	Not Active	Not Active	Not Active	–	–	–	–	–	–	–	–	–	–
CC[C@H](C)C(=O)O[C@H]1C[C@H](O)C=C2C=C[C@H](C)[C@H](CC[C@@H](O)C[C@@H](O)CC(=O)O)[C@H]21 [PRAVASTATIN]	Not Active	Not Active	Not Active	Not Active	Not Active	Not Active	Not Active	Not Active	–	–	–	–	–	–	–	–	–	–
CCOC(=O)n1ccn(C)c1=S [CARBIMAZOLE]	Not Active	Not Active	Not Active	Not Active	Not Active	Not Active	Not Active	Not Active	–	–	–	–	–	–	–	–	–	–
C#C[C@]1(O)CC[C@H]2[C@@H]3CCC4=Cc5oncc5C[C@]4(C)[C@H]3CC[C@@]21C [DANAZOL]	Not Active	Not Active	Not Active	–	–	Not Active	–	–	–	–	–	–	18.3 µM	6.87 µM	17 µM	12.8 µM	19.6 µM	12.6 µM
